{
  "source": "patent US7297712B2",
  "about": "“Cationic amphiphiles for intracellular delivery of therapeutic molecules and its composition, process and method of treatment” (Council of Scientific and Industrial Research, priority 2002, dated 2007)",
  "data": [
    {"system": "COS-1 cells", "assay": "Cell transfection, β-galactosidase reporter gene activity", "format": "cell-based", "conditions": "pCMV β-gal plasmid 0.15 μg, lipid:DNA charge ratios 0.1:1 to 9:1, compared with DMRIE, FIG. 1", "experimental": "Similar examples of plasmid include PGL-2 and PGL-3 of Promega and others.\nCell Transfection. COS-1 cells were seeded at a density of 15,000 cells/well in a 96-well plate eighteen hours before the transfection. 0.15 μg of plasmid DNA was complexed with varying amount of lipid (0.05-4.3 nmoles) in 13 μl of plain DMEM medium for 30 min. The charge ratios were varied from 0.1:1 to 9:1 (+/−) over this range of the lipid. The complex was diluted to 100 μl with plain DMEM and added to the wells. After 3 h of incubation, 100 μl of DMEM with 10% FCS was added to the cells. The medium was changed to 10% complete medium after 24 h and the reporter gene activity was estimated after 48 h. The cells were washed twice with PBS and lysed in 50 μl of lysis buffer (0.25 M Tris.HCl, pH 8.0 and 0.5% NP40). Care was taken to ensure complete lysis. The β-galactosidase activity per well was estimated by adding 50 μl of 2× substrate solution (1.33 mg/ml of ONPG, 0.2 M sodium phosphate, pH 7.15 and 2 mM magnesium chloride) to the lysate in a 96-well plate. Absorption at 405 nm was converted to β-galactosidase units by using calibration curve constructed with pure commercial β-galactosidase enzyme. The values of β-galactosidase units in replicate plates assayed on the same day varied by less than 30%. […]", "values": [
      {"smiles": "CCCCCCCCCCCCCC[N+]1(CCCCCCCCCCCCCC)CC(O)C(O)C1", "note": "(stereo not drawn) [lipid 2, N,N-di-n-tetradecyl-3,4-dihydroxy pyrrolidinium chloride]", "in vitro transfection efficiency": "comparable to or better than that of DMRIE"}
    ]},
    {"system": "EtBr:pCMV β-gal complex (DNA)", "assay": "Lipid:DNA interactions assay (ethidium bromide exclusion fluorescence)", "format": "binding", "conditions": "titration of EtBr:DNA complex with lipid, TE buffer pH 8.0, FIG. 2", "text": "Lipid:DNA Interactions Assay. Intercalation-induced fluorescence increase and competition with cationic lipids to bind to DNA has made Ethidium Bromide (EtBr) an excellent tool to study cationic lipid-DNA interactions. To assess the representative lipid:DNA interactions for the cationic lipids of the present invention, we have titrated the EtBr:pCMV β-gal complex with increasing amounts of cationic lipids 1-5.\nThe extent of Et.Br binding to the DNA was monitored by the changes in the fluorescence. EtBr fluorescence was monitored in Hitachi 4500 fluorimeter by setting the excitation wavelength at 518 nm and emission wavelength at 585 nm. To one ml of TE buffer (pH 8.0), 0.78 nmoles of DNA and 2.5 nmoles of EtBr were added. The change in fluorescence was monitored after adding small volumes of lipids 1-5 to the EtBr:DNA complex. Arbitrary fluorescence values were recorded after allowing sufficient time for equilibration. […] Percent fluorescence was calculated considering the fluorescence value in the absence of lipid as 100.", "values": [
      {"smiles": "CCCCCCCCCCCC[N+]1(CCCCCCCCCCCC)CC(O)C(O)C1", "note": "(stereo not drawn) [lipid 1, N,N-di-n-dodecyl-3,4-dihydroxy pyrrolidinium chloride]", "lipid:DNA interaction (ability to exclude ethidium bromide from DNA)": "interact poorly with DNA"},
      {"smiles": "CCCCCCCCCCCCCC[N+]1(CCCCCCCCCCCCCC)CC(O)C(O)C1", "note": "(stereo not drawn) [lipid 2, N,N-di-n-tetradecyl-3,4-dihydroxy pyrrolidinium chloride]", "lipid:DNA interaction (ability to exclude ethidium bromide from DNA)": "interact with DNA equally well up to lipid:DNA ratio of 1.25 or so"},
      {"smiles": "CCCCCCCCCCCCCCCC[N+]1(CCCCCCCCCCCCCCCC)CC(O)C(O)C1", "note": "(stereo not drawn) [lipid 3, N,N-di-n-hexadecyl-3,4-dihydroxy pyrrolidinium chloride]", "lipid:DNA interaction (ability to exclude ethidium bromide from DNA)": "interact with DNA equally well up to lipid:DNA ratio of 1.25 or so"},
      {"smiles": "CCCCCCCCCCCCCCCCCC[N+]1(CCCCCCCCCCCCCCCCCC)CC(O)C(O)C1", "note": "(stereo not drawn) [lipid 4, N,N-di-n-octadecyl-3,4-dihydroxy pyrrolidinium chloride]", "lipid:DNA interaction (ability to exclude ethidium bromide from DNA)": "interact poorly with DNA"},
      {"smiles": "CCCCCCCC/C=C\\CCCCCCCC[N+]1(CCCCCCCCCCCCCCCCCC)CC(O)C(O)C1", "note": "(stereo not drawn) [lipid 5, N-n-octadecyl-N-oleyl-3,4 dihydroxy pyrrolidinium chloride]", "lipid:DNA interaction (ability to exclude ethidium bromide from DNA)": "interact poorly with DNA"}
    ]}
  ]
}
